Data: BindingDB's records for patent US9403804 (Janssen Pharmaceutica, 2016)
pIC50: −log10 of the molar value.

Target: Macrophage colony-stimulating factor 1 receptor (Homo sapiens, UniProt P07333)
Assay: Fluorescence Polarization Competition Immunoassay
Conditions: pH 7.5; 25 °C
Description: The assay buffer used was 100 mM 4-(2-hydroxyethyl)piperazine 1-ethanesulfonic acid (HEPES), pH 7.5, 1 mM 1,4-dithio-DL-threitol (DTT), 0.01% (v/v) Tween-20. Compounds were diluted in assay buffer containing 4% dimethylsulfoxide (DMSO) just prior to the assay. To each well, 5 μL of compound were added followed by the addition of 3 μL of a mix containing 33 nM c-fms (Johnson & Johnson PRD) and 16.7 mM MgCl2 (Sigma) in assay buffer. The kinase reaction was initiated by adding 2 μL of 5 mM ATP (Sigma) in assay buffer. The final concentrations in the assay were 10 nM c-fms, 1 mM ATP, 5 mM MgCl2, 2% DMSO. Control reactions were ran in each plate: in positive and negative control wells, assay buffer (made 4% in DMSO) was substituted for the compound; in addition, positive control wells received 1.2 μL of 50 mM ethylenediaminetetraaceticacid (EDTA). The plates were incubated at room temperature for 45 min. At the end of the incubation, the reaction was quenched with 1.2 μL of 50 mM EDTA (EDTA was not added to the positive control wells at this point; see above). Following a 5-min incubation, each well received 10 μL of a 1:1:3 mixture of anti-phosphotyrosine antibody, 10×, PTK green tracer, 10× (vortexed), FP dilution buffer, respectively (all from PanVera, cat. # P2837). The plate was covered, incubated for 30 min at room temperature and the fluorescence polarization was read on the Analyst. […]

Macrophage colony-stimulating factor 1 receptor, sequence (P07333 whole entry): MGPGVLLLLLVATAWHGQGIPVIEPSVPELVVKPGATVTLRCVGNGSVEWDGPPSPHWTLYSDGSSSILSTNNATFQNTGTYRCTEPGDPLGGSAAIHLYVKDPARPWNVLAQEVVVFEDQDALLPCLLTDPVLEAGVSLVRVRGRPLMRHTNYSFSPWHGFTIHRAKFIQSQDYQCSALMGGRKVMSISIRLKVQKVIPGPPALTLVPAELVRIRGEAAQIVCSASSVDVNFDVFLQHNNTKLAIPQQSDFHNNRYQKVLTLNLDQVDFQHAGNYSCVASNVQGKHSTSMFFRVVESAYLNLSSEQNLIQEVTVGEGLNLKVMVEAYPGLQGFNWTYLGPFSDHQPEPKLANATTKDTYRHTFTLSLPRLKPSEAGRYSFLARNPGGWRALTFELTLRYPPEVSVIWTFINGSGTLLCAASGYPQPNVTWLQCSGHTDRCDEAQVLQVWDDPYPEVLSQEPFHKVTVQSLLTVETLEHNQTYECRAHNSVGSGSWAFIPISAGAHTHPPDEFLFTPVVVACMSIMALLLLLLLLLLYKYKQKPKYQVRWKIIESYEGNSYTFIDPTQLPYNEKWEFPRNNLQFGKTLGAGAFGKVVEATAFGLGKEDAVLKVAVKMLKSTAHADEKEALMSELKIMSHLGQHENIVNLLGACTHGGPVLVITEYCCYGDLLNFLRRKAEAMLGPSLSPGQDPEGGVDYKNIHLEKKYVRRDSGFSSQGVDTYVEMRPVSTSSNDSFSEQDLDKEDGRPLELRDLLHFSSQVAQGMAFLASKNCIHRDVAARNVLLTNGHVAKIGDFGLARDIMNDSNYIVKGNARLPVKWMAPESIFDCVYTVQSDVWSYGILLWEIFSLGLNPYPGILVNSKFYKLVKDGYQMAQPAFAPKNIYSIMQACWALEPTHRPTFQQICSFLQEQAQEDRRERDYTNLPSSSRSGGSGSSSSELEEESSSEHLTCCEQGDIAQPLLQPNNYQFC

| pIC50 | Compound |
| --- | --- |
| 9.14 | CC1(C)CC=C(c2cc([C@]3(O)CC[C@@H](N4CCOCC4)CC3)ccc2NC(=O)c2nc(C#N)c[nH]2)CC1 [US9403804, 44] |
| 8.47 | CC1(C)CC=C(c2cc([C@]3(O)CC[C@H](N4CCOCC4)CC3)ccc2NC(=O)c2nc(C#N)c[nH]2)CC1 [US9403804, 45] |
